Values of other authors as cited in patent publication US9238024B2, “Methods for improving health in canines” (Quality IP Holdings, LLC, priority 2012, dated 2016).

Experiments:
canines [1] = system: canines
canines [2] = system: canines; remark: listed apart in the source

| Compound | new bone formation (canines [1]; adult canines of both sexes, exogenous growth hormone) | bone growth factors and fracture healing (canines [1]; canines) | quantity of protein in the blood plasma (canines [1]; canines given growth hormone) | levels of serum insulin-like growth factor-I (canines [2]; canines) | size and strength of the quadriceps muscle (canines [2]; canines during remobilization) |
| --- | --- | --- | --- | --- | --- |
| growth hormone | marked increase | enhances | increased |  |  |
| CC(C)(N)C(=O)N[C@H](COCc1ccccc1)C(=O)N1CCC2(CC1)CN(S(C)(=O)=O)c1ccccc12 [MK-0677] |  |  |  | elevates | increases |
